Assay results from ChEMBL document CHEMBL1201862, “PubChem BioAssay data set” (2004).
Active and inactive are the calls of the source.

What was measured:
[1] = target: Intestinal-type alkaline phosphatase (Homo sapiens, UniProt P09923); test: activation of human intestinal alkaline phosphatase – biochemical, dose response (AID 488873); type: functional
[2] = target: Intestinal-type alkaline phosphatase (Mus musculus, UniProt P24822); test: PubChem AID 488785; type: functional
[3] = target: T1, Alkaline phosphatase, tissue-nonspecific isozyme (Homo sapiens, UniProt P05186); test: TNAP enzyme inhibition by screening hits, dose response, selectivity assay for mouse IAP inhibitor project, biochemical, human TNAP, uHTS hits (AID 488906); type: functional
T1 sequence (P05186 whole entry): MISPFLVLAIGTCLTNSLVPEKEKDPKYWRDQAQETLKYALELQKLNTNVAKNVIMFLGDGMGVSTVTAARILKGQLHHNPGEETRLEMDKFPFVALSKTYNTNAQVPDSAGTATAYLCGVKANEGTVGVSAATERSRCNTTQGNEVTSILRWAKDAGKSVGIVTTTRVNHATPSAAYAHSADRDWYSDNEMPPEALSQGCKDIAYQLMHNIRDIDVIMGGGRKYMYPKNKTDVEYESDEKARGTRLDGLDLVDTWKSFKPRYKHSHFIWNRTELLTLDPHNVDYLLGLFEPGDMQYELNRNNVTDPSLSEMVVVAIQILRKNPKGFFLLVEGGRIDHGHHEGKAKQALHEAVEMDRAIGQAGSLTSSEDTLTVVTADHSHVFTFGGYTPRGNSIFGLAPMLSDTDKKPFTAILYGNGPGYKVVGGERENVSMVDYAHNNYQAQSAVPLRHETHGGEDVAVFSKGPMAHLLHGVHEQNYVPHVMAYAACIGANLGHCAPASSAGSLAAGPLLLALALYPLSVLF

[4] = target: Dual specificity tyrosine-phosphorylation-regulated kinase 1A (Rattus norvegicus, UniProt Q63470); type: biochemical, Homo sapiens
[5] = target: Protein disulfide-isomerase (Homo sapiens, UniProt P07237); test: PDI inhibitors, insulin aggregation turbidity, dose response, biochemical, absorbance, cherry-picked samples (AID 602350); type: functional
Protein disulfide-isomerase, sequence (P07237 whole entry): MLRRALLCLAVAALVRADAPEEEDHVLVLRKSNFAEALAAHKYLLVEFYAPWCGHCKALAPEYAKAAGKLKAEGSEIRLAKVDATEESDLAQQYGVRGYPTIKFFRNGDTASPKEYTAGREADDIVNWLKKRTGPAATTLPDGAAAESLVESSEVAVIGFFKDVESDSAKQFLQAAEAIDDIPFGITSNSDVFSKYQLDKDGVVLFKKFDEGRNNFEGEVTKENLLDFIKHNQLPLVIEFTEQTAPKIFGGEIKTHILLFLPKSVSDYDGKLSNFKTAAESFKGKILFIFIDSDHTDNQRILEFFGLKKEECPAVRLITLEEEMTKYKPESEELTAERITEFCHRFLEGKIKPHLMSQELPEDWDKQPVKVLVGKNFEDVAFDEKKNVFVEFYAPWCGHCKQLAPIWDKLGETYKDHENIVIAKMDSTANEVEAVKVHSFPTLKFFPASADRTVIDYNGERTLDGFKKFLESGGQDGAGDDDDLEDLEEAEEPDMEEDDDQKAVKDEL

[6] = inhibitors of intracellular T. cruzi replication, confirmation, NIH3T3 host cells, beta-gal luminescence (AID 2044); type: functional, cell-based;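 further: intracellular parasites grown in NIH/3T3 mouse fibroblasts as host cells; luminescent beta-galactosidase reporter signal from transgenic T. cruzi replicating inside host cells; inhibitors lower the luminescence signal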
[7] = cytotoxicity toward NIH3T3 fibroblasts, dose response, counter-screen, cell-based, ATP luminescence, mouse fibroblasts (AID 2010); type: functional;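 further: cells exposed to compound for about 90 hours before reading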
Protein Wnt-3a = Protein Wnt-3a (Mus musculus, UniProt P27467); test: Wnt3a-driven reporter signaling inhibition, dose response, selectivity assay for Gli-SUFU antagonist project, Wnt-LIGHT cells, luminescence (AID 651570); type: functional; conditions: read-out: IC50_Mean;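 further: Wnt-LIGHT reporter cells stimulated with conditioned medium from Wnt3a-producing cells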
Protein Wnt-3a, sequence (P27467 whole entry): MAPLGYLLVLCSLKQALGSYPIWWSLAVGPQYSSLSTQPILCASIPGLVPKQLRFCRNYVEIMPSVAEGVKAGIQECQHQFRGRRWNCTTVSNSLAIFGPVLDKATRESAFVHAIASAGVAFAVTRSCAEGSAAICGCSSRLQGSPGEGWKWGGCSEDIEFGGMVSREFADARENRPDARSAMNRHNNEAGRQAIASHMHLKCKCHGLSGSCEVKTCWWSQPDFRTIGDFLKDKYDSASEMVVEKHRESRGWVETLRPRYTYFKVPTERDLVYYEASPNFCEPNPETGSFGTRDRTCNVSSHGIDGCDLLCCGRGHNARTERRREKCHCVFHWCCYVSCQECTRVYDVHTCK

[8] = target: Benomyl/methotrexate resistance protein (Candida albicans, UniProt P28873); test: CaMdr1 efflux pump inhibitor potency, dose response, singleplex, Cherry Pick1 hits (AID 588608); type: functional
Benomyl/methotrexate resistance protein, sequence (P28873 whole entry): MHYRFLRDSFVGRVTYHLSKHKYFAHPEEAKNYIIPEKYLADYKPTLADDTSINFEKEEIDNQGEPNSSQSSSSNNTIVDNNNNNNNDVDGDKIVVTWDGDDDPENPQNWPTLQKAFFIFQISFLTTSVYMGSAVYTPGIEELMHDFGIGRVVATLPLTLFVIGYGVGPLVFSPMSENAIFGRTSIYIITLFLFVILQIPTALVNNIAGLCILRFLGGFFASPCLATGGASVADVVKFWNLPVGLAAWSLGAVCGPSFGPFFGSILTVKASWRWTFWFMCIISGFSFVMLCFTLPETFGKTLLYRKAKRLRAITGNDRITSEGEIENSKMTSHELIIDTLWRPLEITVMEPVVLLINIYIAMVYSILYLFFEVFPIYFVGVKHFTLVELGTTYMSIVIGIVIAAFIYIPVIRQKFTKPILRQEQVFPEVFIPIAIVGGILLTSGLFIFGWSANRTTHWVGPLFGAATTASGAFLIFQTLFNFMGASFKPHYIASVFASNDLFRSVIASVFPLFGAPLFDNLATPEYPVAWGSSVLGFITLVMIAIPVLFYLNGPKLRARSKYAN

Melanocortin receptor 4 = Melanocortin receptor 4 (Homo sapiens, UniProt P32245); type: functional, cell-based;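 further: Cell-based assay with luminescence read-out, confirmatory dose-response testing for agonist activity of biased ligands at MC4R; human U2OS cells with tagged receptor and beta-arrestin; potency of agonists that increase receptor coupling to beta-arrestin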
Melanocortin receptor 4, sequence (P32245 whole entry): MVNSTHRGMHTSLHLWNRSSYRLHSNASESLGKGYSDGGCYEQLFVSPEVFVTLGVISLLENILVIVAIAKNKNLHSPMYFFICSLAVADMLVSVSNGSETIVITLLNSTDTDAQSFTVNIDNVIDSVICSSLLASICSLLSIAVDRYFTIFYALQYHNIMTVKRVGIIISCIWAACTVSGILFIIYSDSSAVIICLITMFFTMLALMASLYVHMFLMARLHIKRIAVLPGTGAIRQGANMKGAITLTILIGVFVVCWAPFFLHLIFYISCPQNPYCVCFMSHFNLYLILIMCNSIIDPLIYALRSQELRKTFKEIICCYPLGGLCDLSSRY

[9] = target: Alkaline phosphatase, placental type (Homo sapiens, UniProt P05187); test: PLAP enzyme inhibitors, confirmation, biochemical, luminescence (AID 1512); type: functional
Alkaline phosphatase, placental type, sequence (P05187 whole entry, the tested form may be a part): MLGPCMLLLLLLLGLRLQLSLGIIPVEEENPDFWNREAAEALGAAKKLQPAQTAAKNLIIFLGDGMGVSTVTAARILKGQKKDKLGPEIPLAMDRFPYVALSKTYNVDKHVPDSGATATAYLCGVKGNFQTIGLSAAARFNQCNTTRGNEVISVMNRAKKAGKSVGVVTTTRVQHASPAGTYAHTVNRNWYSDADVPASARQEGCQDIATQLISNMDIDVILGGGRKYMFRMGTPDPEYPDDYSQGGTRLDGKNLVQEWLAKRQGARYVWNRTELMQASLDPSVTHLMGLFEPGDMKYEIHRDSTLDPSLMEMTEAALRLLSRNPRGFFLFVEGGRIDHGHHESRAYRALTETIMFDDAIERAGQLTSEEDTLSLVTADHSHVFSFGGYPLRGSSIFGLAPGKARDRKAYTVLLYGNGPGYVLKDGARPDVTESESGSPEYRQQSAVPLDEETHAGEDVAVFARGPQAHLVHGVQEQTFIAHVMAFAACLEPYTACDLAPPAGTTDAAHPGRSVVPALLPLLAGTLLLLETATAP

[10] = ARNT/TACC3 interaction disruptors, potency, confirmation, biochemical, AlphaScreen, cherry-picked samples (AID 651703); type: functional, Homo sapiens;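 further: His-tagged ARNT PAS-B domain paired with GST-TACC3 E629A dimer coactivator fragment; potency of inhibitors that break up the complex and lower AlphaScreen signal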
[11] = target: T2, Sentrin-specific protease 8 (Homo sapiens, UniProt Q96LD8); test: SENP8 protease inhibitors, SAR follow-up, biochemical, luminescence (AID 504501); type: functional
T2 sequence (Q96LD8 whole entry): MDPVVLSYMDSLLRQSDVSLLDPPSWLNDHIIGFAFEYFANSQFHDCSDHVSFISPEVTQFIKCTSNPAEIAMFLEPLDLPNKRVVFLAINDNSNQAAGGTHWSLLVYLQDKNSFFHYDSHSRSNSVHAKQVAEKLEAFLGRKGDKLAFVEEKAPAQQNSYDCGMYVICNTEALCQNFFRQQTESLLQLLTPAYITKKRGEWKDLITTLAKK

Caspase-3 = target: T3, Caspase-3 (Homo sapiens, UniProt P42574); test: SAR Analysis of small molecule inhibitors of Sentrin-specific proteases (SENPs) using a Caspase-3 Selectivity assay. [Related pubchem assays (depositor defined):AID2540, AID2599, AID434973, AID489001]; type: functional
T3 sequence (P42574 whole entry): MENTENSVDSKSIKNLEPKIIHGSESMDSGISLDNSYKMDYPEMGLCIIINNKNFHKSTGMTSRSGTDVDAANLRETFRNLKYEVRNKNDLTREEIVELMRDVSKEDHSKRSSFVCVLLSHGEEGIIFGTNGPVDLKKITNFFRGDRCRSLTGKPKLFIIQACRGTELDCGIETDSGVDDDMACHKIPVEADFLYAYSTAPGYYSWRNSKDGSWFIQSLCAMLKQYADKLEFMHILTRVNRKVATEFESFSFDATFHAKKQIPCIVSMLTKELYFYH

[12] = target: T4, Sentrin-specific protease 6 (Homo sapiens, UniProt Q9GZR1); test: SAR Analysis of small molecule inhibitors of Sentrin-specific protease 6 (SENP6) using a Luminescent assay. [Related pubchem assays (depositor defined):AID2582, AID2599]; type: functional
T4 sequence (Q9GZR1 whole entry): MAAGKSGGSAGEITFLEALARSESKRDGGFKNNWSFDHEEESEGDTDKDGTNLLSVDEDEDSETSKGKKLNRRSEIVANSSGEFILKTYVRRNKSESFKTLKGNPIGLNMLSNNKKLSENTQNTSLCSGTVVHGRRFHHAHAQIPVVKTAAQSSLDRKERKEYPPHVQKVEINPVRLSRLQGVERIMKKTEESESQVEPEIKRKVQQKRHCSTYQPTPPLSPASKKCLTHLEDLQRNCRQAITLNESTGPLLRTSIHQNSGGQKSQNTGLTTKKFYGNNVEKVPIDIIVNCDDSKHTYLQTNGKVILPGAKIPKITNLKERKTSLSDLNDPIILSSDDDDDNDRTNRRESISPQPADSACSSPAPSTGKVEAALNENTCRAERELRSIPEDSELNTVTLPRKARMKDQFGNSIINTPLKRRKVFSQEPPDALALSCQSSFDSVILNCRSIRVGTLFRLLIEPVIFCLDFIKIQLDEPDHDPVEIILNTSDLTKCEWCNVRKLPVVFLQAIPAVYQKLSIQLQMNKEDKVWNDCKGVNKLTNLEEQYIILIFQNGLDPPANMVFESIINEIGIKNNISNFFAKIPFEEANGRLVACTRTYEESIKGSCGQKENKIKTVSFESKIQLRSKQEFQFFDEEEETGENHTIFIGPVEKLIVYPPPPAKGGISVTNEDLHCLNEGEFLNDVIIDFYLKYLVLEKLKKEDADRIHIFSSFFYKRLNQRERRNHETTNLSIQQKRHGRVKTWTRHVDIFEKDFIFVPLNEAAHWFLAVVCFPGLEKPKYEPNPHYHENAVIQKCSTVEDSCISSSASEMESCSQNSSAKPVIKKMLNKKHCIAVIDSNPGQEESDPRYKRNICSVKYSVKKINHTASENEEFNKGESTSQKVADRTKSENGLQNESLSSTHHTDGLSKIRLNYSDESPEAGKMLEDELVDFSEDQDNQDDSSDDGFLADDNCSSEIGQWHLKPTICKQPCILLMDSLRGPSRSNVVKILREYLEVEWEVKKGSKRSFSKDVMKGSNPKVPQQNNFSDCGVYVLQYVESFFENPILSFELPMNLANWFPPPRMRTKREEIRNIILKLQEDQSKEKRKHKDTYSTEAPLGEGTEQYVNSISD

[13] = target: T5, Sentrin-specific protease 7 (Homo sapiens, UniProt Q9BQF6); test: SENP7 protease inhibitors, SAR follow-up, biochemical, luminescence (AID 504497); type: functional
T5 sequence (Q9BQF6 whole entry): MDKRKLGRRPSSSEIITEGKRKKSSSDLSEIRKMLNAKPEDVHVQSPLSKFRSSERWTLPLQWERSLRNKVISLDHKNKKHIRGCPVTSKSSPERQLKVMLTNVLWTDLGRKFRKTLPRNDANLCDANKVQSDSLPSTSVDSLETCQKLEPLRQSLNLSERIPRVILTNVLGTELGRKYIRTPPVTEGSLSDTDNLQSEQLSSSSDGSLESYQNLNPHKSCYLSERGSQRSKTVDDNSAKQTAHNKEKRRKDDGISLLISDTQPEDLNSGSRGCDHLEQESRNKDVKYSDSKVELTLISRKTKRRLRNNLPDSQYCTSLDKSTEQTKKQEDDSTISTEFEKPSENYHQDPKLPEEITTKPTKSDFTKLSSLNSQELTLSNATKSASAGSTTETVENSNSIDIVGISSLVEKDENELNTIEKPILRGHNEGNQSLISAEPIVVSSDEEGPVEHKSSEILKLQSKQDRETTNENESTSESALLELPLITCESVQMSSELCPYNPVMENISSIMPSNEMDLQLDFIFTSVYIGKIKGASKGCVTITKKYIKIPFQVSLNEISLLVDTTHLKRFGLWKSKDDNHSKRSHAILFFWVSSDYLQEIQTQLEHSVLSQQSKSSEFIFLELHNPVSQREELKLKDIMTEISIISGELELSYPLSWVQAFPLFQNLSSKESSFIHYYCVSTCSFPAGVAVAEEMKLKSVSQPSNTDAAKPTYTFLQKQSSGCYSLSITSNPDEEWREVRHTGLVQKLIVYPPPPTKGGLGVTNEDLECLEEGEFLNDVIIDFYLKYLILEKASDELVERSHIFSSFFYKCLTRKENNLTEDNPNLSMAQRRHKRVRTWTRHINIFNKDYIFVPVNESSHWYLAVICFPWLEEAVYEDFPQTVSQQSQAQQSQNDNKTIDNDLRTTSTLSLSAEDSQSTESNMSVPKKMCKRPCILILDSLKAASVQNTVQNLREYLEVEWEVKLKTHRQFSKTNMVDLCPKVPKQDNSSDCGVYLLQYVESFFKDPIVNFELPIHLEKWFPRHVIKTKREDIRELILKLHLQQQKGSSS

[14] = target: Melanin-concentrating hormone receptor 1 (Homo sapiens, UniProt Q99705); test: Late-stage fluorescence-based counterscreen for antagonists of the G-protein coupled receptor 7 (GPR7): cell-based dose response assay to identify antagonists of the melanin-concentrating hormone receptor 1 (MCHR1) Set 6.; type: functional
Melanin-concentrating hormone receptor 1, sequence (Q99705 whole entry): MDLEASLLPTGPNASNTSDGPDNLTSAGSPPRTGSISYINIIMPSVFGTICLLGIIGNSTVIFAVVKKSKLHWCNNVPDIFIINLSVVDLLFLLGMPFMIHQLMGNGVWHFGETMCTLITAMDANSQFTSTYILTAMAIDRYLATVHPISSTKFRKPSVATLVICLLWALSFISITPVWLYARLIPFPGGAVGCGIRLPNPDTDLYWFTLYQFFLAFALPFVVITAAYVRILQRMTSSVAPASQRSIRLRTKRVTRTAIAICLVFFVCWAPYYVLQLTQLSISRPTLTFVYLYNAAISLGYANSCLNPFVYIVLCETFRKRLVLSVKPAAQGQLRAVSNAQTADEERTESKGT

[15] = target: Neuropeptides B/W receptor type 1 (Homo sapiens, UniProt P48145); test: GPR7 antagonist potency, late-stage follow-up, cell-based, fluorescence, dose response, set 6 (AID 588583); type: functional
Neuropeptides B/W receptor type 1, sequence (P48145 whole entry, the tested form may be a part): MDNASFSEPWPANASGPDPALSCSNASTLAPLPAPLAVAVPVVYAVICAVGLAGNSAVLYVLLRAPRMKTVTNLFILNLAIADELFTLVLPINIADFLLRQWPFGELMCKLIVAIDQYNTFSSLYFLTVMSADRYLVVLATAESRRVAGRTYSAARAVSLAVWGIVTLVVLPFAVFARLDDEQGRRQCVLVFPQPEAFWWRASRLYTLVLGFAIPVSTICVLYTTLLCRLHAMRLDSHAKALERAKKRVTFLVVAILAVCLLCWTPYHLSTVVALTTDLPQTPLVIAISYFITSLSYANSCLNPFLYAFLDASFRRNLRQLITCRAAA

[16] = target: Hepatocyte nuclear factor 4-alpha (Homo sapiens, UniProt P41235); type: functional, cell-based;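 further: biochemical luminescence-based dose-response counterscreen measuring inhibition of HNF4 dimerization, run alongside a screen for blockers of ABHD5–perilipin-5 interaction; split luciferase complementation of HNF4 fusion proteins in cell lysate measuring dimerization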
Hepatocyte nuclear factor 4-alpha, sequence (P41235 whole entry, the tested form may be a part): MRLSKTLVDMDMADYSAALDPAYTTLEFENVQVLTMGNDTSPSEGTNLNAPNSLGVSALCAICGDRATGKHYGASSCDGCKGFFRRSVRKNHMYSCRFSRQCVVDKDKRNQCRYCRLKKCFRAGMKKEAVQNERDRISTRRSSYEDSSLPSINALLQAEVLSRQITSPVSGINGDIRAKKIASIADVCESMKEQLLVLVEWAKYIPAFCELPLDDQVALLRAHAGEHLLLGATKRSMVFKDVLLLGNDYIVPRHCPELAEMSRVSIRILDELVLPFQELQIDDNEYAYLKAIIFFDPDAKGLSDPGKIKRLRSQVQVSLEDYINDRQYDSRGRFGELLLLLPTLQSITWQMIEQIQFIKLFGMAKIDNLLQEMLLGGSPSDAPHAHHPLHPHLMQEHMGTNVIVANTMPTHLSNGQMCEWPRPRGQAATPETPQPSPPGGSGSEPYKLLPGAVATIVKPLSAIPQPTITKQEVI

[17] = target: T6, Heat shock factor protein 1 (Mus musculus, UniProt P38532); test: inhibition of MG132-induced HSE-luciferase signal, confirmation, cell-based, NIH3T3, luminescence, dose retest (AID 2382); type: functional;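 further: NIH3T3 fibroblasts with HSF1-driven luciferase reporter stressed by proteasome inhibitor MG132; luminescence from HSF1-driven luciferase expression after 8 hours of MG132 stress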
T6 sequence (P38532 whole entry): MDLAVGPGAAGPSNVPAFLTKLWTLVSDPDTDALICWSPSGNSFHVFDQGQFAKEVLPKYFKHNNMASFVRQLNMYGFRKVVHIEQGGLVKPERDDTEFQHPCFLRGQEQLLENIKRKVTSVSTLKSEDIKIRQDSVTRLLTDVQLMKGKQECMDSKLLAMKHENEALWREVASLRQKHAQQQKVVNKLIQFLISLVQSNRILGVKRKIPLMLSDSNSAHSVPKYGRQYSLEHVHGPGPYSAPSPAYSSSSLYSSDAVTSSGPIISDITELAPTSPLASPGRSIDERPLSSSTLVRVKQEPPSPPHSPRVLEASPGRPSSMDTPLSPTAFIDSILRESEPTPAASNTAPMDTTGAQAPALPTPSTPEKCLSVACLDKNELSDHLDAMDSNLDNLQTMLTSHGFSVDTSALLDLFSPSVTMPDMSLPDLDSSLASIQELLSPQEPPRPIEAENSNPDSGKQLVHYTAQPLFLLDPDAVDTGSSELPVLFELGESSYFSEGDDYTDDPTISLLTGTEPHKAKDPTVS

[18] = target: Mitochondrial peptide methionine sulfoxide reductase (Bos taurus, UniProt P54149); type: functional;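 further: absorbance read-out, biochemical high-throughput dose-response screen for MsrA inhibitors, confirmatory; recombinant bovine MsrA coupled to E. coli TrxB with NADPH and selenocystamine; potency is for inhibitors of MsrA activity on DMSO substrate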
Mitochondrial peptide methionine sulfoxide reductase, sequence (P54149 whole entry): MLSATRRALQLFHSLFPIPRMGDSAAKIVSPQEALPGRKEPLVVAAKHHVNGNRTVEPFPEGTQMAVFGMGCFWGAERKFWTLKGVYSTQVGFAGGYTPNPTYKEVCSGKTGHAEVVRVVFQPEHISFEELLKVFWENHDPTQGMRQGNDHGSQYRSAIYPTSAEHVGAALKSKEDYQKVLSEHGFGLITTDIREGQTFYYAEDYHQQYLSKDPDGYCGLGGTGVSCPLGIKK

Intestinal-type alkaline phosphatase (Homo sapiens, UniProt P09923), sequence (P09923 whole entry): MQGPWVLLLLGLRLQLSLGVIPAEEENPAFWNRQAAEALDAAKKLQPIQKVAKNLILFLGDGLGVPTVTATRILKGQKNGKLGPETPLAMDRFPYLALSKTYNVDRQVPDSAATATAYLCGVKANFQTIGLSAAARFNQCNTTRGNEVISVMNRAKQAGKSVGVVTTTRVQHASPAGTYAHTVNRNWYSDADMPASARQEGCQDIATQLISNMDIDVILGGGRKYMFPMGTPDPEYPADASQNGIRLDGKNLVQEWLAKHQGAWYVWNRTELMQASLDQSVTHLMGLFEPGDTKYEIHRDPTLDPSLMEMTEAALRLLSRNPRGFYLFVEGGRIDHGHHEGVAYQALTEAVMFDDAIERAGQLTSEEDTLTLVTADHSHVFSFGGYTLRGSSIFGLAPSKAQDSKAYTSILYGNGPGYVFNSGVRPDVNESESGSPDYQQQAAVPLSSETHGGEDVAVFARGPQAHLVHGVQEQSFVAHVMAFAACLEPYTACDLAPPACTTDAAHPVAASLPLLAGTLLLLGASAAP
Intestinal-type alkaline phosphatase (Mus musculus, UniProt P24822), sequence (P24822 whole entry): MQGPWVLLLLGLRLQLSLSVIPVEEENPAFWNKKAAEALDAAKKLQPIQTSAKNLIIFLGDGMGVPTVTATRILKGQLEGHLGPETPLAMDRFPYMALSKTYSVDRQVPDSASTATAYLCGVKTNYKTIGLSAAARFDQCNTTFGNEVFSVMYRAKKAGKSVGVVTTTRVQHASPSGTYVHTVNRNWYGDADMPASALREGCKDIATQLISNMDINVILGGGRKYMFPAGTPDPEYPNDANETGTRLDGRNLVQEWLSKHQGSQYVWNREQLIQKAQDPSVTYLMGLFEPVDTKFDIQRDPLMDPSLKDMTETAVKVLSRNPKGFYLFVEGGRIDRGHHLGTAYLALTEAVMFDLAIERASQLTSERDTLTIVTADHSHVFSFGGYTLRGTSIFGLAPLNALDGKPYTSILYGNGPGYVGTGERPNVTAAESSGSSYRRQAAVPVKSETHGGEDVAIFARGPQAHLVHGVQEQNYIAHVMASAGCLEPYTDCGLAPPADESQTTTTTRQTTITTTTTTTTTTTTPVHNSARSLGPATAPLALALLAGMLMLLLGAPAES

C[C@@H]1O[C@@H](O[C@H]2[C@H](O)[C@@H](O)[C@H](Oc3c(-c4ccc(O)c(O)c4)oc4cc(O)cc(O)c4c3=O)O[C@@H]2CO)[C@H](O)[C@H](O)[C@H]1O
EC50 [1]: 22 µM (active)
IC50 [2]: 5.66 µM (active)
IC50 [3]: 10.8 µM (active)
AC50 [4]: 11.4 µM (active)
AC50 [5]: 4.28 µM (active)

c1ccc(-c2cn3c([n+]2-c2ccccc2)SCC3)cc1
EC50 [6]: 1.92 µM (active)
EC50 [7]: > 60 µM (not active)
IC50 (Protein Wnt-3a): 37.6 µM (inactive)

COc1ccccc1-c1nc(C(N)=O)c2[nH]c(=O)n(-c3cccc(C)c3)c2n1
EC50 [8]: 17.2 µM (active)

CCOC(=O)c1ccc(-c2ccc(/C=C(\C#N)C(=O)NCc3cccs3)o2)cc1
EC50 (Melanocortin receptor 4): > 89.2 µM (inactive)

COc1ccc(-c2cc(NCc3ccccn3)n3ncnc3n2)cc1
IC50 [9]: > 100 µM (inactive)
AC50 [10]: 91.5 µM (active)

CCOC(=O)c1c(-c2ccc(-c3ccccc3)cc2)csc1NC(=O)c1ccc(C)cc1
IC50 [11]: > 99 µM (inactive)
IC50 (Caspase-3): > 99 µM (inactive)
IC50 [12]: > 99 µM (inactive)
IC50 [13]: > 99 µM (inactive)

Oc1ccccc1-c1noc(-c2ccccc2O)n1
IC50 [11]: 3.6 µM (active)
IC50 (Caspase-3): 0.97 µM (active)
IC50 [12]: 3.5 µM (active)
IC50 [13]: 2 µM (active)

N#CC(C#N)c1cnn(Cc2cccc3ccccc23)c(=O)c1Cl
IC50 [14]: > 20 µM (inactive)
IC50 [15]: > 20 µM (inactive)

CCC(C#N)c1c(Cl)cnn(Cc2cccc3ccccc23)c1=O (stereo not drawn)
IC50 [14]: 2.17 µM (active)
IC50 [15]: 2.17 µM (active)

O=C(Nc1ccc2c(c1)OCCO2)C(c1ccccc1F)n1c(=O)c(-c2ccco2)nc2ccccc21 (stereo not drawn)
IC50 [16]: 16.2 µM (inactive)

CCCCc1[nH]nc2c1/C(=N/OCC)CC(C)(C)C2
EC50 [17]: > 195 µM (not active)
IC50 [18]: 155 µM (inactive)

C[C@@H]1O[C@@H](Oc2c(-c3ccc(O)c(O)c3)oc3cc(O)cc(O)c3c2=O)[C@H](O)[C@H](O)[C@H]1O [QUERCITRIN]
AC50 [5]: 2.48 µM (active)
